Inconclusive results are not listed. Calls of active or inactive are those of the source. No rule for the calls is given here.
tested on: Mycobacterium tuberculosis non-replicating, growth inhibition; assay: growth inhibition of non-replicating M. tuberculosis (AID 488890)

| Compound | IC50 |
| --- | --- |
| COc1cc(/C=C2/C(=O)NN(c3ccc(Cl)cc3)C2=O)ccc1OC(=O)c1ccco1 | 5.12 µM |
| C/C(=N\NC(=O)CCCNc1ccc(C)cc1)c1ccccn1 | 9.07 µM |
| COC(=O)C(O)(c1ccc(NC(=S)NC(=O)c2ccccc2)cc1)C(F)(F)F (stereo not given) | 14.8 µM (inactive) |
| NC1CCN(c2c(F)cc3c(=O)c(C(=O)O)cn(C4CC4)c3c2Cl)C1 (stereo not given) | 0.15 µM |
| CCOC(=O)Cc1nc2cc(Cl)ccc2o1 | 32.3 µM (inactive) |
| COc1ccc(C2(O)CCN(CC(=O)Nc3nc(-c4ccccc4)cs3)CC2)cc1 | 24.2 µM (inactive) |
| Cn1c(SCc2c(F)cccc2Cl)nc2c(c1=O)SCC2 | 28.2 µM (inactive) |
| COc1ccccc1-c1nnc(Sc2nc([N+](=O)[O-])nn2C)o1 | 8.19 µM |
| O=C(Nc1nc2ccccc2n1CCOc1ccc(Cl)cc1)c1ccco1 | 14.4 µM (inactive) |
| Nc1nc2ccccc2n1C(=O)c1ccc(F)cc1 | 13.2 µM (inactive) |
| O=C(COc1ccc2ccccc2c1)Nc1nccs1 | 5.88 µM |
| CCc1ccc(C(=O)COC(=O)c2ccc(Cl)nc2)cc1 | 17.3 µM (inactive) |
| CCOC(=O)Cc1csc(NC(=O)c2c(O)c3ccccc3n(CCC(C)C)c2=O)n1 | 1.77 µM |
| CCOc1ccc(C(=O)Nc2ccc(N3CCN(C)CC3)cc2)cc1Br | 30.5 µM (inactive) |
| CCOc1c(OC(C)=O)ccc(/C=C2\N=C(SCC)SC2=O)c1[N+](=O)[O-] | 10.2 µM (inactive) |
| O=C(Nc1nnc(C2=COCCO2)o1)c1cccc(C(F)(F)F)c1 | 17.7 µM (inactive) |
| COc1cc(NC(=O)C/C(C)=N/NC(=O)c2cccs2)c(OC)cc1Cl | 7.93 µM |
| Cc1cccc(OCCCCc2c(C)n[nH]c2C)c1 | 9.86 µM |
| O=C(Nc1ccc(F)cc1F)c1cc2ccccc2oc1=O | 25.1 µM (inactive) |
| CCS(=O)(=O)c1ncc(Cl)c(C(=O)Nc2ccc(C)cc2)n1 | 4.64 µM |
| O=[N+]([O-])c1cc(Cl)cc(/C=N/Nc2nc3ccccc3s2)c1O | 1.8 µM |
| O=C(Nc1nnc(COc2ccc(Cl)cc2)s1)c1ccco1 | 21.4 µM (inactive) |
| COC(=O)COc1ccc2c(-c3cccc([N+](=O)[O-])c3)cc(=O)oc2c1 | 1.84 µM |

| Compound | IC50 |
| --- | --- |
| Cc1cc(-c2c(C)[nH]n(-c3ccccc3)c2=O)n[nH]1 | 29.2 µM (inactive) |
| O=C(OCCCCN1C(=O)c2ccccc2C1=O)c1ccc(Br)o1 | 6.06 µM |
| NC(=O)N=Nc1c2[nH]c3ccccc3nc-2c2ccccc12 | 9.06 µM |
| O=C(NCc1ccc(Cl)cc1)c1n[nH]c([N+](=O)[O-])c1Cl | 13.9 µM (inactive) |
| Cc1cc2oc3ccc(NCCCn4ccnc4)cc3c(=O)c2cc1C | 20.9 µM (inactive) |
| Cc1cccc(Nc2nc(-c3ccccn3)cs2)n1 | 0.95 µM |
| O=[N+]([O-])c1ccc(CN2CCN(c3ccccc3)CC2)o1 | 0.64 µM |
| CC(=O)c1c(C)n(C)c2ccc(OC(=O)c3ccco3)cc12 | 10.3 µM (inactive) |
| CC(C)(C)NCc1cc(Br)ccc1OCc1cccs1 | 9.07 µM |
| O=C(COc1ccc(-c2ccccc2)cc1)Nc1cccnc1 | 3.28 µM |
| O=C(NCCCN1CCOCC1)c1c(O)c2cc(Br)cc(Br)c2[nH]c1=O | 0.8 µM |
| N#CC1=C(c2ccccc2)/C(=C/c2ccccc2)OC1=O | 2.82 µM |
| Cc1cc(N2CCCCC2)nc(NCc2ccccc2)n1 | 8.38 µM |
| O=C(NC1CC2CCC1C2)C1COc2ccccc2O1 (stereo not given) | < 0.1 µM |
| COC(=O)CCn1c(C)cc(C(=O)COc2ccccc2C(N)=O)c1C | 9.88 µM |
| O=C(Oc1c(-c2ccco2)oc2ccccc2c1=O)c1cccnc1 | 11.5 µM (inactive) |
| CCOc1ccc2nc(NC(=O)c3ccccn3)sc2c1 | 1.03 µM |
| O=C(CCN1C(=O)/C(=C/c2ccccc2Cl)SC1=S)N1CCCC1 | 7.03 µM |
| O=C1CCC(=O)N1CNc1ccc(Oc2ccccc2)cc1 | 2.02 µM |
| O=C1CCC/C(=N/Nc2ccc(Cl)cc2)C1 | 3.72 µM |
| Cc1cc(C(=O)N/N=C/c2cccc(Cl)c2Cl)no1 | 1.01 µM |
| O=C(CCc1ccccc1)NC1C2CC3CC(C2)CC1C3 (stereo not given) | 4.71 µM |
| CCOC(=O)Cc1c(C)nc2c(-c3ccc(Cl)cc3)c[nH]n2c1=O | 3.93 µM |

| Compound | IC50 |
| --- | --- |
| O=C(CNC(=O)c1ccco1)OCc1ccc(C(=O)Oc2ccccc2)cc1 | 8.17 µM |
| CCN(CC)CCCN(C(=O)c1ccco1)c1nc(-c2ccc(C)cc2)cs1 | 21.9 µM (inactive) |
| Cc1ccc(Sc2ccc(C=C3C(=O)N(C)C(=O)N(C)C3=O)o2)cc1 | 3.04 µM |
| COc1cc(C(=O)N/N=C/c2cc([N+](=O)[O-])cs2)cc(OC)c1OC | 3.58 µM |
| O=C(CCc1ccccc1)N/N=C/c1cc(Br)ccc1O | 0.44 µM |
| N#CC(C#N)=c1ccc2c(c1)NC1(CCCCC1)N=2 | 5.71 µM |
| COc1ccc(C(=O)COC(=O)c2ccccc2O)c(OC)c1 | 1.46 µM |
| COc1ccc(C(=O)Nc2nnc(-c3ccccc3)o2)cc1OC | 10.4 µM (inactive) |
| Nc1ncnc(Oc2cccc3cccnc23)c1[N+](=O)[O-] | 4.36 µM |
| CCc1ccc(NC(=O)CCc2ccc(C)o2)cc1 | 9.6 µM |
| CC[n+]1c(/C=C(\C)Nc2ccccc2)sc2ccccc21 | 6.34 µM |
| CN(C)c1ccc(NC(=O)COC(=O)c2cc(Cl)ccc2[N+](=O)[O-])cc1 | 8.95 µM |
| C/C(=N\NC(=O)c1cc([N+](=O)[O-])cc([N+](=O)[O-])c1)c1ccco1 | 11.4 µM (inactive) |
| C=CCNc1nc(C(=O)OCC(=O)c2cccc(Br)c2)cs1 | 20.8 µM (inactive) |
| O=C(Nc1ncc([N+](=O)[O-])s1)c1ccc2c(c1)OCO2 | 4.75 µM |
| CCCCNC(=O)Cc1ccc(C)cc1 | 5.46 µM |
| COc1cc2[nH]c(Cl)c([N+](=O)[O-])c2cc1OC | 14.1 µM (inactive) |
| CC(Oc1ccc2ccccc2c1)C(=O)NNC(=S)NC(=O)c1ccco1 (stereo not given) | 22.1 µM (inactive) |
| COC(=O)CCCCCN1C(=O)/C(=C\c2ccncc2)SC1=S | 3.94 µM |
| O=C(COc1ccc2ccccc2c1)N/N=C/c1ccccn1 | 6.72 µM |
| COc1ccc(CC(=O)OCC(=O)Nc2ccc(Br)cc2)cc1 | 14.6 µM (inactive) |
| O=C(OCn1nnc2ccccc2c1=O)c1cccs1 | 12.4 µM (inactive) |
| O=C(COC(=O)c1ccc(Br)o1)Nc1ncc([N+](=O)[O-])s1 | 14.4 µM (inactive) |

| Compound | IC50 |
| --- | --- |
| O=C(N/N=C/c1ccc([N+](=O)[O-])o1)c1sc2ccccc2c1Cl | 2.9 µM |
| O=C(N/N=C/c1ccc[nH]1)c1ccc(Cl)cc1 | 3.88 µM |
| Cc1[nH]n(-c2ccc(Cl)cc2)c(=O)c1N=Nc1cccnc1 | 1.37 µM |
| O=C1N=c2ccccc2=C1c1c(O)n(-c2cccc(F)c2)[nH]c1=O | 6.91 µM |
| O=[N+]([O-])c1ccc(CNc2cccc(Cl)c2)s1 | 43.7 µM (inactive) |
| NC(=O)COC(=O)c1sc2ccccc2c1Cl | 8.25 µM |
| CCOC(=O)c1sc(NC(=O)CCN2CCOCC2)c(C(=O)OCC)c1C | 1.73 µM |
| COc1cc(OC)cc(C(=O)NNC(=O)c2ccccn2)c1 | 11.6 µM (inactive) |
| COc1cccc(C(=O)OCn2nnc3ccccc3c2=O)c1OC | 19 µM (inactive) |
| CCOc1ccc(OCCSc2ccc(S(=O)(=O)N3CCN(C)CC3)cn2)cc1 | 15.5 µM (inactive) |
| CCOc1ccc(-c2nnc(NC(=O)CCCOc3cccc(C)c3)o2)cc1 | 15 µM (inactive) |
| Cc1ccc(C(C)C)c(OCC(=O)OCc2c(C)noc2C)c1 | 3.51 µM |
| Cc1cccnc1NC(=O)COc1ccc2oc3c(c2c1)CCCC3 | 9.41 µM |
| Cc1ccc(C)c(-c2csc(NC(=O)c3cnccn3)n2)c1 | 3.13 µM |
| CCOC(=O)C(=NCCOC)NNc1cc(Cl)ccc1Cl | 30.4 µM (inactive) |
| CS(=O)(=O)Nc1cccc2cccnc12 | 21.4 µM (inactive) |
| CC1=C(C)/C(=N\OS(=O)(=O)c2ccccc2)C=CC1=O | 1.47 µM |
| CCCCSc1nnc(-c2ccc(C)cc2)o1 | 0.37 µM |
| O=C(COC(=O)c1cccc([N+](=O)[O-])c1)NCc1cccs1 | 25.7 µM (inactive) |
| CN(C)CCCn1c(=O)n(CCc2ccccc2)c(=O)c2c3c(sc21)CCCCC3 | 16.9 µM (inactive) |
| Cc1cc([N+](=O)[O-])ccc1NC(=O)Nc1ccc(F)cc1F | 21.9 µM (inactive) |
| Cn1nnc(NC(=O)COc2ccc(C3CCCCC3)cc2)n1 | 1.68 µM |
| O=C(CCNc1ccc(Cl)cc1)c1cccs1 | 3.79 µM |

| Compound | IC50 |
| --- | --- |
| COc1ccc(-c2nnn(Cc3ccccc3)n2)cc1 | 12.4 µM (inactive) |
| O=C(N/N=C/c1ccccn1)c1cccc(S(=O)(=O)Nc2ccccc2Cl)c1 | 15.1 µM (inactive) |
| O=C(COC(=O)c1ccc([N+](=O)[O-])s1)Nc1ccc(Cl)cn1 | 2.37 µM |
| CC12CN3CC(C)(CN(C1)C3c1ccc([N+](=O)[O-])o1)C2 (stereo not given) | 4.23 µM |
| Oc1ccc(Cl)cc1C1=NNC(c2cccs2)C1 (stereo not given) | 3.85 µM |
| COc1ccccc1NC(=O)CCN1CCN(c2ccc(Cl)cc2)CC1 | 24.2 µM (inactive) |
| COC(=O)COc1ccc(-c2ccc(F)cc2)cc1C=O | 5.82 µM |
| O=C(c1ccc(Cl)cc1)c1nnc(-c2ccncc2)o1 | 3.32 µM |
| Cc1ccc(CO/N=C/c2c(O)cc(C)oc2=O)cc1 | 16.6 µM (inactive) |
| O=C1NC(=O)C(=Cc2ccc(Oc3ccc([N+](=O)[O-])cc3)cc2)C(=O)N1 | 16.5 µM (inactive) |
| Nc1nc2ccccc2n1CCOc1ccc(Br)cc1 | 21.5 µM (inactive) |
| COC(=O)[C@@H](NC(=O)c1cc(COc2cncc(Cl)c2)on1)c1ccccc1 | 5.58 µM |
| CC1CCC/C(=C\Nc2ccc(C(=O)O)c(O)c2)C1=O (stereo not given) | < 0.1 µM |
| Cc1ccc(C(=O)Oc2cccc(-n3cnnn3)c2)cc1 | 25.3 µM (inactive) |
| CCCc1cc(NCc2ccccn2)n2nc(C)c(-c3ccccc3)c2n1 | 2.23 µM |
| Cc1noc(C)c1COc1ccc(C(=O)Nc2ccccn2)cc1 | 24.6 µM (inactive) |
| O=C(Nc1ncc(Cc2ccccc2)s1)C1=NCCN1 | 9.49 µM |
| C=C1Cn2c(nnc2-c2ccc(Cl)cc2)S1 | 12.8 µM (inactive) |
| CCc1cc2c3c(c1)C(C)CC(C)(C)N3C(=O)/C2=C1\SC(=O)NC1=O (stereo not given) | 21.5 µM (inactive) |
| O=C(CCc1c[nH]c2ccccc12)Nc1ncccc1O | 15.1 µM (inactive) |
| COC(CNC(=O)c1ccc2c3c(onc13)-c1ccccc1C2=O)OC | 2.4 µM |
| CN(C)CCC(=O)N1c2ccccc2Sc2ccc(Cl)cc21 | 21 µM (inactive) |
| CCOc1ccc(Cn2c(=O)oc3ccccc32)cc1 | 0.83 µM |

Reference: PubChem BioAssay AID488890 (Southern Research Specialized Biocontainment Screening …, 2010)
